Patent EP0973746B1, “SUBSTITUTED 3-CYANO QUINOLINES” (Wyeth Holdings Corporation, priority 1997, dated 1998)
Converted amounts (≈) assume the structure as drawn. “And” between values parts separate entries of the source, which are not always exact repeats. Equal entries are not always repeated. Where two headings read alike, the source gives them in different places.

Assays:
[1] = tested on: NHEK; assay: Inhibition of cell growth by incorporation of [3H]-thymidine, NHEK; assay type: cell-based, human; details: Homo sapiens, read-out: IC50 NHEK
[2] = tested on: A27805; assay: Inhibition of cancer cell growth as measured by cell number, A27805; assay type: cell-based; details: Homo sapiens, 48 h, read-out: IC50 A27805
[3] = tested on: HCT15; assay: Inhibition of cancer cell growth as measured by cell number, HCT15; assay type: cell-based; details: Homo sapiens, HCT-15, 48 h, read-out: IC50 HCT15
[4] = target: recombinant human MEK 1 (MAPKK) and recombinant human ERK2 (MAPK); assay: Mitogen Activated Protein Kinase (MAPK) assay, two component coupled MEK 1 / ERK2; assay type: biochemical; details: separate entries for the same compound = evaluated more than one time;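 further: MEK 1-activated ERK2 phosphorylates MBP or Myc peptide with 33P-ATP, filter capture and scintillation counting, inhibitor preincubated with ERK2 30 min at 0 °C, inhibition relative to uninhibited control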
[5] = tested on: CX1; assay: Inhibition of cancer cell growth as measured by cell number, CX1; assay type: cell-based; details: Homo sapiens, CX-1, 48 h, read-out: IC50 CX1
[6] = tested on: CCRF-CFM; assay: Inhibition of cancer cell growth as measured by cell number, CCRF-CFM; assay type: cell-based; details: Homo sapiens, 48 h, read-out: IC50 CCRF-CFM
[7] = tested on: LX1; assay: Inhibition of cancer cell growth as measured by cell number, LX1; assay type: cell-based; details: Homo sapiens, LX-1, 48 h, read-out: IC50 LX1
[8] = tested on: A431; assay: Inhibition of cell growth by incorporation of [3H]-thymidine, A431; assay type: cell-based, human; details: Homo sapiens, A-431, read-out: IC50 A431
[9] = tested on: SW948; assay: Inhibition of cancer cell growth as measured by cell number, SW948; assay type: cell-based; details: Homo sapiens, SW948, 48 h, read-out: IC50 SW948
[10] = target: epidermal growth factor receptor kinase (Homo sapiens, UniProt P00533); assay: biochemical
epidermal growth factor receptor kinase, sequence (P00533 25-1210): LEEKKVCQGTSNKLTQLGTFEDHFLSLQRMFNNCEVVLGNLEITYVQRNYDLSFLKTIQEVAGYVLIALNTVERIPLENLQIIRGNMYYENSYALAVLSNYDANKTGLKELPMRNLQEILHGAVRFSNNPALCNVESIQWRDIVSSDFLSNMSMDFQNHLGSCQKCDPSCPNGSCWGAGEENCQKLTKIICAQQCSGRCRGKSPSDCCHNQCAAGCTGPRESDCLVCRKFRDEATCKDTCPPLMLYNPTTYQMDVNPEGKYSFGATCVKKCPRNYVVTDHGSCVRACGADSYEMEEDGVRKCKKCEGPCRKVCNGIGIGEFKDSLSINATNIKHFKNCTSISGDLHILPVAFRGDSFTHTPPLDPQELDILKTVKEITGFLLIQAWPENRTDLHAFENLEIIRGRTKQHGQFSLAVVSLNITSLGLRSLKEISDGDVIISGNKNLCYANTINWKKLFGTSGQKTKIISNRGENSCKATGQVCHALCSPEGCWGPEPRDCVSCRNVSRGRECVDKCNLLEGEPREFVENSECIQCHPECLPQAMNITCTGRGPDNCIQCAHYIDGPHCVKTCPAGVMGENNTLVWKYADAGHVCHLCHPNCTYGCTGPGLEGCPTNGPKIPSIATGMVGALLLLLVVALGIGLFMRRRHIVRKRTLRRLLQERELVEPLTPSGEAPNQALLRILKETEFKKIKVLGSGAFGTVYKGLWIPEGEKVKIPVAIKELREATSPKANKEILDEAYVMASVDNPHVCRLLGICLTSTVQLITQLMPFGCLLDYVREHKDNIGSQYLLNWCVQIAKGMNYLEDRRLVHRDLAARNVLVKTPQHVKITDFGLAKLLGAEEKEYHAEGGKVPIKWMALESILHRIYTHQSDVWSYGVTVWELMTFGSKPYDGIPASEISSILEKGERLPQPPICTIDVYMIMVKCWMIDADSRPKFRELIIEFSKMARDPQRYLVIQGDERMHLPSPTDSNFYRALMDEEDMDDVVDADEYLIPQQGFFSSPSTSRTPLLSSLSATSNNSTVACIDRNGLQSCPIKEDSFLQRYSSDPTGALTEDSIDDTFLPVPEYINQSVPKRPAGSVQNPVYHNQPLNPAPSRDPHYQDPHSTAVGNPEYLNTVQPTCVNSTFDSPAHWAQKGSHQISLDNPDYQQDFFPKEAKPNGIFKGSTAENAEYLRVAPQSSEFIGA
Description: The enzyme was obtained as a membrane extract of A431 cells (American Type Culture Collection, Rockville, MD). A431 cells were grown in T175 flasks to 80% confluency. The cells were washed twice with phosphate buffered saline (PBS) without Ca^2+. Flasks were rotated for 1.5 hours in 20 ml PBS with 1.0 mM ethylenediaminetetraacetic acid (EDTA) at room temperature and centrifuged at 600g for 10 minutes. The cells were solubilized in 1 ml per 5 x 10^6 cells of cold lysis buffer {10mM 4-(2-hydroxyethyl)-1-piperazineethane-sulfonic acid (HEPES), pH 7.6, 10 mM NaCl, 2mM EDTA, 1mM phenylmethyl-sulfonyl-fluoride (PMSF), 10 mg/ml aprotinin, 10 mg/ml leupeptin, 0.1 mM sodium orthovanadate} in a Dounce homogenizer with 10 strokes on ice. The lysate was centrifuged at 600g for 10 minutes first to clear cell debris and the supernatant further centrifuged at 100,000 g for 30 min at 4°C. The membrane pellet was suspended in 1.5 ml HNG buffer (50 mM HEPES, pH 7.6, 125 mM NaCl, 10% glycerol). The membrane extract was divided into aliquots, immediately frozen in liquid nitrogen and stored at -70°C.
Compounds to be evaluated were made into 10 mg/ml stock solutions in 100% dimethylsulfoxide (DMSO). Prior to experiment, stock solutions were diluted to 500 mM with buffer (30 mM Hepes pH 7.4) and then serially diluted to the desired concentration.
An aliquot of the A431 membrane extract (10 mg/ml) was diluted in 30 mM HEPES (pH 7.4) to give a protein concentration of 50 ug/ml. […] To this was added the ^33p-ATP (10 mCi/ml) diluted 1:10 in assay buffer along with the substrate peptide at a concentration of 0.5 mM (control reactions get no test compound) and the reaction was allowed to proceed for 30 min at 30°C. The reaction was stopped with 10% TCA and left on ice for at least 10 min after which tubes were microcentrifuged at full speed for 15 min. The a portion of the supernatants were spotted on P81 phosphocellulose discs and washed twice in 1% acetic acid then water for 5 min each followed by scintillation counting. […] The % inhibition of the test compound was determined for at least three different concentrations and the IC50 value was evaluated from the dose response curve. […] CPM(control) is in units of counts per minute and was a number expressing the amount of radiolabeled ATP (g-^33P) incorporated into the RR-SRC peptide substrate by the enzyme after 30 minutes at 30°C in the absence of test compound as measured by liquid scintillation counting. The CPM values were corrected for the background counts produced by ATP in the absence of the enzymatic reaction. The IC50 values reported in TABLE 1 are averages of the number of tests conducted.

[11] = tested on: A549; assay: Inhibition of cancer cell growth as measured by cell number, A549; assay type: cell-based; details: Homo sapiens, A549, 48 h, read-out: IC50 A549
[12] = tested on: B7474; assay: Inhibition of cancer cell growth as measured by cell number, B7474; assay type: cell-based; details: Homo sapiens, 48 h, read-out: IC50 B7474
[13] = tested on: A2780DDP; assay: Inhibition of cancer cell growth as measured by cell number, A2780DDP; assay type: cell-based; details: Homo sapiens, 48 h, read-out: IC50 A2780DDP
[14] = tested on: human epidermoid tumors (A431); assay: In vivo inhibition of the growth of human epidermoid tumors (A431); details: for S/T = No. Survivors/No. Treated: Day +28 post tumor staging; for tumor growth was inhibited: 100 mg/kg administered i.p. during days 1-10
Summary of the method: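 Female BALB/c nu/nu mice from Charles River were injected subcutaneously with 5 X 10^6 human epidermoid (A431) tumor cells. Once tumors weighed 100 to 150 mg, animals were randomized into treatment groups on day zero, and untreated controls were included. Tumor mass, calculated as (length X width^2)/2, was measured every 7 days for 28 days after staging. Relative growth was mean mass on days 7, 14, 21 and 28 divided by the day-zero mean.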

[15] = tested on: LNCAP; assay: Inhibition of cancer cell growth as measured by cell number, LNCAP; assay type: cell-based; details: Homo sapiens, 48 h, read-out: IC50 LNCAP
[16] = tested on: DU145; assay: Inhibition of cancer cell growth as measured by cell number, DU145; assay type: cell-based; details: Homo sapiens, DU-145, 48 h, read-out: IC50 DU145
[17] = tested on: MCF7; assay: Inhibition of cancer cell growth as measured by cell number, MCF7; assay type: cell-based, human; details: Homo sapiens, MCF7, 48 h, read-out: IC50 MCF7, cell number, Sulforhodamine B, 48 hours exposure;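 further: MCF7 was included as a line with little or no EGFR or HER2/neu expression, in contrast to the receptor-overexpressing lines of the panel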
Excerpt: (§1) The cell lines were chosen since they overexpressed epidermal growth factor receptor (EGFR) (i.e. A431) or HER2/neu (SKBR3), or had little to no expression of the these receptors (SW620, LOX, MCF7).

[18] = tested on: HL60; assay: Inhibition of cancer cell growth as measured by cell number, HL60; assay type: cell-based; details: Homo sapiens, HL-60, 48 h, read-out: IC50 HL60
[19] = tested on: MIP; assay: Inhibition of cancer cell growth as measured by cell number, MIP; assay type: cell-based; details: Homo sapiens; cell number, Sulforhodamine B, 48 hours exposure; Table 4; read-out: IC50 MIP
[20] = tested on: SW620; assay: Inhibition of cancer cell growth as measured by cell number, SW620; assay type: cell-based, human; details: Homo sapiens, SW-620, 48 h, read-out: IC50 SW620, cell number, Sulforhodamine B, 48 hours exposure;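 further: SW620 was included as a cell line with little or no EGFR or HER2/neu expression, in contrast to receptor-overexpressing lines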
Excerpt: as §1

[21] = tested on: HTB161; assay: Inhibition of cancer cell growth as measured by cell number, HTB161; assay type: cell-based; details: Homo sapiens, 48 h, read-out: IC50 HTB161
[22] = tested on: A431; assay: Inhibition of cancer cell growth as measured by cell number, A431; assay type: cell-based, human; details: Homo sapiens, A-431, 48 h, read-out: IC50 A431, cell number, Sulforhodamine B, 48 hours exposure;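 further: human A431 line, picked because it overexpresses epidermal growth factor receptor (EGFR)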
Excerpt: as §1

[23] = tested on: T47D; assay: Inhibition of cancer cell growth as measured by cell number, T47D; assay type: cell-based; details: Homo sapiens, 48 h, read-out: IC50 T47D
[24] = tested on: SKBR3; assay: Inhibition of cancer cell growth as measured by cell number, SKBR3; assay type: cell-based, human; details: Homo sapiens, SK-BR-3, 48 h, read-out: IC50 SKBR3, cell number, Sulforhodamine B, 48 hours exposure;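 further: SK-BR-3 cells were selected as a line overexpressing HER2/neu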
Excerpt: as §1

[25] = tested on: LOX; assay: Inhibition of cancer cell growth as measured by cell number, LOX; assay type: cell-based, human; details: Homo sapiens, LOX, 48 h, read-out: IC50 LOX, cell number, Sulforhodamine B, 48 hours exposure;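 further: LOX cells served as a line with low or absent EGFR and HER2/neu expression, in contrast to receptor-overexpressing lines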
Excerpt: as §1

[26] = tested on: NEC; assay: Inhibition of cancer cell growth as measured by cell number, NEC; assay type: cell-based; details: Homo sapiens, 48 h, read-out: IC50 NEC
[27] = tested on: CACO2; assay: Inhibition of cancer cell growth as measured by cell number, CACO2; assay type: cell-based; details: Homo sapiens, Caco-2, 48 h, read-out: IC50 CACO2
[28] = tested on: CCL228; assay: Inhibition of cancer cell growth as measured by cell number, CCL228; assay type: cell-based; details: Homo sapiens, 48 h, read-out: IC50 CCL228
[29] = tested on: LS174T; assay: Inhibition of cancer cell growth as measured by cell number, LS174T; assay type: cell-based; details: Homo sapiens, 48 h, read-out: IC50 LS174T
[30] = 10 mg/kg/dose IP on days 1 through 10
[31] = 50 mg/kg/dose IP on days 1 through 10
[32] = 100 mg/kg/dose IP on days 1 through 10

`CCOc1cc2ncc(C#N)c(Nc3cccc(Br)c3)c2cc1OCC` [Example 47, 4-[(3-Bromophenyl)amino]6,7-diethoxy-3-quinolinecarbonitrile] was tested, and the IC50 [1] was 30 nM, the IC50 [2] was 0.053 µg/mL (≈ 0.129 µM) and the IC50 [3] was 0.0395 µg/mL (≈ 0.0959 µM). The IC50 [4] was 8000 nM and 5000 nM, the IC50 [5] was 0.0618 µg/mL (≈ 0.15 µM) and the IC50 [6] was 0.068 µg/mL (≈ 0.165 µM). For the same compound, the IC50 [7] was 0.076 µg/mL (≈ 0.184 µM), the IC50 [8] was 1500 nM and the IC50 [9] was 0.0683 µg/mL (≈ 0.166 µM). For the same compound, the IC50 [10] was 130 nM, the IC50 [11] was 0.0679 µg/mL (≈ 0.165 µM) and the IC50 [12] was 0.233 µg/mL (≈ 0.566 µM). The IC50 [13] was 0.0645 µg/mL (≈ 0.157 µM), the “%T/C Day 7” value [14, 30] was 69% and the “%T/C Day 14” value [14, 30] was 74%. The “%T/C Day 21” value [14, 30] was 116%, the “%T/C Day 28” value [14, 30] was 136% and the “S/T = No. Survivors/No. Treated” value [14, 30] was 5/5. The “%T/C Day 7” value [14, 31] was 44 (d) %, the “%T/C Day 14” value [14, 31] was 55 (d) % and the “%T/C Day 21” value [14, 31] was 87%. For the same compound, the “%T/C Day 28” value [14, 31] was 102%, the “S/T = No. Survivors/No. Treated” value [14, 31] was 5/5 and the “tumor growth was inhibited” value ([14]; day 7) was 66%. For the same compound, the “tumor growth was inhibited” value ([14]; day 14) was 63%, the “tumor growth was inhibited” value ([14]; day 28) was 57% and the “%T/C Day 7” value [14, 32] was 34(d) %. For the same compound, the “%T/C Day 14” value [14, 32] was 37(d) %, the “%T/C Day 21” value [14, 32] was 51% and the “%T/C Day 28” value [14, 32] was 43%. For the same compound, the “S/T = No. Survivors/No. Treated” value [14, 32] was 5/5, the IC50 [15] was 0.0337 µg/mL (≈ 0.0816 µM) and the IC50 [16] was 0.068 µg/mL (≈ 0.165 µM). For the same compound, the IC50 ([17]; Table 5) was 0.072 µg/mL (≈ 0.175 µM), the IC50 ([17]; Table 8) was 0.02 µg/mL (≈ 0.0485 µM) and the IC50 [18] was 0.0625 µg/mL (≈ 0.152 µM). The IC50 [19] was 0.0693 µg/mL (≈ 0.168 µM), the IC50 ([20]; Table 4) was 0.0672 µg/mL (≈ 0.163 µM) and the IC50 ([20]; Table 8) was less than 0.01 µg/mL. It also gave an IC50 [21] of 0.00395 µg/mL (≈ 0.00957 µM), an IC50 ([22]; Table 6) of 0.0446 µg/mL (≈ 0.108 µM) and an IC50 ([22]; Table 8) of less than 0.01 µg/mL. The IC50 [23] was 0.0467 µg/mL (≈ 0.113 µM), the IC50 ([24]; Table 7) was 0.0467 µg/mL (≈ 0.113 µM) and the IC50 ([24]; Table 8) was less than 0.01 µg/mL. It also gave an IC50 ([25]; Table 6) of 0.0605 µg/mL (≈ 0.147 µM), an IC50 ([25]; Table 8) of 0.03 µg/mL (≈ 0.0728 µM) and an IC50 [26] of 0.0671 µg/mL (≈ 0.163 µM). For the same compound, the IC50 [27] was 0.0701 µg/mL (≈ 0.17 µM), the IC50 [28] was 0.0715 µg/mL (≈ 0.174 µM) and the IC50 [29] was 0.0468 µg/mL (≈ 0.114 µM).
